According to ChEMBL document CHEMBL3098057, “(E)-Alkenes as replacements of amide bonds: development of novel and potent acyclic CGRP receptor antagonists” (Bioorg Med Chem Lett, 2014):

Columns and labels:
human MDR1 = assay: Efflux ratio of permeability from basolateral to apical side over apical to basolateral side in pig LLC-PK1 cells expressing human MDR1; type: ADME, cell-based, Sus scrofa
[1] = Apparent passive permeability of the compound in presence of […]; type: physicochemical; details: not told
[2] = biological target: Calcitonin-gene-related peptide receptor, CALCRL/RAMP1 (Homo sapiens, UniProt O60894+Q16602); assay: Displacement of [125I]-hCGRP from human CALCRL/RAMP1 expressed in HEK293 cell membranes
Sequence of Calcitonin-gene-related peptide receptor, CALCRL/RAMP1 (O60894 whole entry): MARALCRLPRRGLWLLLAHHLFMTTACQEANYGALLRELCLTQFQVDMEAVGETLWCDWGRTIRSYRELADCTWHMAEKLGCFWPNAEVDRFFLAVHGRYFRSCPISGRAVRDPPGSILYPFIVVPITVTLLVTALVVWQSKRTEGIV
Sequence of Calcitonin-gene-related peptide receptor, CALCRL/RAMP1 (Q16602 whole entry): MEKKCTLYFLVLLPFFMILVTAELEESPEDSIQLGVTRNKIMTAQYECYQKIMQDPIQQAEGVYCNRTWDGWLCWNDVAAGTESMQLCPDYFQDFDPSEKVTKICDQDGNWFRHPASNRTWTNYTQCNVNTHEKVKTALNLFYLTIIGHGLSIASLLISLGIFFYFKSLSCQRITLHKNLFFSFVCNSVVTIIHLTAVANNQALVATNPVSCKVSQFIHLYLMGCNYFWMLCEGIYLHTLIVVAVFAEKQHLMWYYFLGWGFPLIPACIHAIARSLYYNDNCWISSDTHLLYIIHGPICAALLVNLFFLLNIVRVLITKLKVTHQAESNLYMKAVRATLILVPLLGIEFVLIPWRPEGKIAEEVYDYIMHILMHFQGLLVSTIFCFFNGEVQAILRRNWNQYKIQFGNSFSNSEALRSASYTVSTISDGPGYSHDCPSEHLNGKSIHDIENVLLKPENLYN

[3] = Half life in rat at 2 mg/kg; type: ADME, organism-based; parameters: dose 2 mg/kg; details: in vivo
[4] = Oral bioavailability in rat at 10 mg/kg; type: ADME, organism-based; details: in vivo
[5] = Clearance in rat at 2 mg/kg; type: ADME, organism-based; parameters: dose 2 mg/kg; details: in vivo

SMILES	efflux ratio (human MDR1)	Papp [1]	Ki [2]	half-life [3]	bioavailability [4]	clearance [5]
C[C@H](c1cc(F)cc(F)c1)N(Cc1cnc2cc3c(cc2c1)C[C@@]1(C3)C(=O)Nc2ncccc21)C(=O)C(C)(C)C	1.3	20 ×10⁻⁶ cm/s				
CC(C)C(=O)N(C/C=C/c1ccc2c(c1)C[C@@]1(C2)C(=O)Nc2ncccc21)[C@H](C)c1cc(F)cc(F)c1			1.27 nM			
C[C@H](c1cc(F)cc(F)c1)N(C/C=C/c1ccc2c(c1)C[C@@]1(C2)C(=O)Nc2ncccc21)C(=O)C1CCOCC1	1.9	32 ×10⁻⁶ cm/s	0.09 nM			
Cc1cc(C(=O)N(C/C=C/c2ccc3c(c2)C[C@@]2(C3)C(=O)Nc3ncccc32)[C@H](C)c2cc(F)cc(F)c2)n(C)n1	2	17 ×10⁻⁶ cm/s	0.45 nM			
C[C@H](c1cc(F)cc(F)c1)N(C/C=C/c1cnc2c(c1)C[C@@]1(C2)C(=O)Nc2ncccc21)C(=O)C(C)(C)C	1.4	27 ×10⁻⁶ cm/s	0.04 nM	11 h	51%	23 mL/min/kg
CC(C)(C)C(=O)N(C/C=C/c1cnc2c(c1)C[C@@]1(C2)C(=O)Nc2ncccc21)C1CCCCCC1	0.8	20 ×10⁻⁶ cm/s	0.89 nM			
Cc1ccc([C@@H](C)N(C/C=C/c2cnc3c(c2)C[C@@]2(C3)C(=O)Nc3ncccc32)C(=O)C(C)(C)C)cc1F	1.1	18 ×10⁻⁶ cm/s				
C[C@H](c1ccc(Cl)cc1)N(C/C=C/c1cnc2c(c1)C[C@@]1(C2)C(=O)Nc2ncccc21)C(=O)C(C)(C)C	1	17 ×10⁻⁶ cm/s	0.31 nM			
C[C@H](c1cc(F)cc(F)c1)N(C/C=C/c1cnc2c(c1)C[C@@]1(C2)C(=O)Nc2ncccc21)C(=O)C1(C(F)(F)F)CC1	2	21 ×10⁻⁶ cm/s				
Cc1ccsc1C(=O)N(C/C=C/c1cnc2c(c1)C[C@@]1(C2)C(=O)Nc2ncccc21)[C@H](C)c1cc(F)cc(F)c1	1.5	17 ×10⁻⁶ cm/s	0.13 nM			
C[C@H](c1cc(F)cc(F)c1)N(C/C=C/c1cnc2c(c1)C[C@@]1(C2)C(=O)Nc2ncccc21)C(=O)c1nccn1C	19	28 ×10⁻⁶ cm/s	0.16 nM			
CC(C)(C)C(=O)N(CC#Cc1ccc2c(c1)C[C@@]1(C2)C(=O)Nc2ncccc21)[C@@H]1CCc2ccccc21			0.2 nM			
CC(C)(C)C(=O)N(CC#Cc1cnc2c(c1)C[C@@]1(C2)C(=O)Nc2ncccc21)[C@@H]1CCc2ccccc21	1.1	26 ×10⁻⁶ cm/s	0.05 nM			
C[C@H](c1ccccc1)N(CCCc1cnc2c(c1)C[C@@]1(C2)C(=O)Nc2ncccc21)C(=O)C(C)(C)C	3.2	39 ×10⁻⁶ cm/s	1.35 nM			
C[C@H](c1cc(F)cc(F)c1)N(C/C=C/c1ccc2c(c1)C[C@@]1(C2)C(=O)Nc2ncccc21)C(=O)C(C)(C)C			0.16 nM			
C[C@H](c1cc(F)cc(F)c1)N(CC(=O)Nc1ccc2c(c1)C[C@@]1(C2)C(=O)NC(=O)N1C)C(=O)C(C)(C)C	8.8	25 ×10⁻⁶ cm/s				

Now from value to compound:

efflux ratio (human MDR1)	Papp [1]	Ki [2]	half-life [3]	bioavailability [4]	clearance [5]	SMILES
27	33 ×10⁻⁶ cm/s	3.38 nM				C[C@H](c1cc(F)cc(F)c1)N(C/C=C/c1ccc2c(c1)C[C@@]1(C2)C(=O)Nc2ncccc21)C(=O)[C@@H]1CCCN1C
		0.35 nM				C[C@H](c1ccccc1)N(C/C=C/c1ccc2c(c1)C[C@@]1(C2)C(=O)Nc2ncccc21)C(=O)C(C)(C)C
		0.2 nM				CC(C)(C)C(=O)N(C/C=C/c1ccc2c(c1)C[C@@]1(C2)C(=O)Nc2ncccc21)[C@@H]1CCc2ccccc21
		0.22 nM				C[C@H](c1ccccc1)N(C/C=C/c1cnc2c(c1)C[C@@]1(C2)C(=O)Nc2ncccc21)C(=O)C(C)(C)C
3.1	24 ×10⁻⁶ cm/s	0.08 nM				CC(C)(C)C(=O)N(C/C=C/c1cnc2c(c1)C[C@@]1(C2)C(=O)Nc2ncccc21)[C@@H]1CCc2ccccc21
0.9	23 ×10⁻⁶ cm/s	0.93 nM				CC(C)(C)C(=O)N(C/C=C/c1cnc2c(c1)C[C@@]1(C2)C(=O)Nc2ncccc21)Cc1cc(F)cc(F)c1
16	29 ×10⁻⁶ cm/s	2.39 nM				Cc1noc(C)c1C(=O)N(C/C=C/c1cnc2c(c1)C[C@@]1(C2)C(=O)Nc2ncccc21)[C@H](C)c1cc(F)cc(F)c1
		0.82 nM				C[C@H](c1ccccc1)N(CC#Cc1ccc2c(c1)C[C@@]1(C2)C(=O)Nc2ncccc21)C(=O)C(C)(C)C
1.3	33 ×10⁻⁶ cm/s	0.13 nM				C[C@H](c1ccccc1)N(CC#Cc1cnc2c(c1)C[C@@]1(C2)C(=O)Nc2ncccc21)C(=O)C(C)(C)C
		2.06 nM				CC(C)(C)C(=O)N(CCCc1ccc2c(c1)C[C@@]1(C2)C(=O)Nc2ncccc21)[C@@H]1CCc2ccccc21
		7.6 nM				C[C@H](c1ccccc1)N(CCCc1ccc2c(c1)C[C@@]1(C2)C(=O)Nc2ncccc21)C(=O)C(C)(C)C
3.1	26 ×10⁻⁶ cm/s	0.22 nM				C[C@H](c1cc(F)cc(F)c1)N(CCCc1cnc2c(c1)C[C@@]1(C2)C(=O)Nc2ncccc21)C(=O)C(C)(C)C
2.6	33 ×10⁻⁶ cm/s	0.61 nM				CC(C)(C)C(=O)N(CCCc1cnc2c(c1)C[C@@]1(C2)C(=O)Nc2ncccc21)[C@@H]1CCc2ccccc21
3.2	26 ×10⁻⁶ cm/s		1 h		11 mL/min/kg	C[C@H](c1cc(F)cc(F)c1)N(CC(=O)Nc1ccc2c(c1)C[C@@]1(C2)C(=O)Nc2ncccc21)C(=O)C(C)(C)C
